From publication PMC10844371 (Diabetologia, 2023)
“And” between values parts separate entries of the source, which are not always exact repeats. Identical values can stand only once. Like-named read-outs stand apart in the source and are kept apart here.

Columns and labels:
[1] = test system: isolated mouse pancreatic islets; test: Insulin secretion in isolated mouse islets (RIA); format: cell-based
Description: Mouse islets were used acutely, except for studies with PTX, wherein islets were treated overnight with the toxin. Human islets were maintained in culture for up to 48 h in RPMI medium containing 10% (vol./vol.) FCS, 1% (vol./vol.) penicillin/streptomycin and 5 mmol/l glucose. Experiments were conducted as previously described. Islets were incubated in 0.3 ml EC1 or EC2 media (ESM Table 2) supplemented with glucose and other reagents as indicated.
(§1) Insulin and somatostatin were determined by RIA (Millipore and Diasource ImmunoAssays, respectively) as described previously. In these experiments, rates of release are expressed as % of contents unless otherwise indicated.

[2] = test system: human alpha cells; test: TIRF imaging of docked secretory granules in human alpha cells; format: cell-based; settings: 10 pmol/l
Description: Cells were imaged using total internal reflection fluorescence (TIRF) microscopy (AxioObserver Z1 with a ×100/1.45 objective [Carl Zeiss] and a diode-pumped solid state laser at 491 nm). For these measurements, EC1 was used (ESM Table 2). Images from cells infected with preproglucagon promoter (PPPG)-neuropeptide Y (NPY)-enhanced green fluorescent protein (EGFP) virus were recorded using an electron-multiplying charge-coupled device camera (Photometrics Evolve) using ZEN blue. Single images of cells were acquired to measure the number of docked granules. Incoming and outgoing granules during visiting, docking and undocking were determined from multiple frame movies as described previously. Candidate docking or undocking events were found manually as granules that approached the TIRF field with an axial component and became laterally confined for at least two frames. We defined docking as granules that remained confined for at least 1 min. Visitors were those granules that remained for <1 min after appearing at the plasma membrane. Undocking was defined as slow movement of a previously docked granule away from its docking site. Granule density was calculated using a script that used the built-in ‘find maxima’ function in ImageJ (version 1.53c; http://rsbweb.nih.gov/ij) for spot detection.

[3] = test system: isolated mouse pancreatic islets; format: cell-based; settings: for glucagon secretion, % of that at 1 mmol/l glucose: mean ± SEM
Description: Experiments were conducted as previously described. Islets were incubated in 0.3 ml EC1 or EC2 media (ESM Table 2) supplemented with glucose and other reagents as indicated.
All data are reported, unless otherwise stated, as mean values ± SEM for the indicated number of experiments using islets from multiple mice. For hormone release studies, islets were isolated and pooled from 4–16 mice. These islets were then subdivided into groups of 12–20 size-matched islets. Each unique set of islets counted as an experiment with the experiments repeated on 2–4 days. Similarly, each unique group of human islets was treated as an experiment. […] In the Ca^2+ imaging and granule docking experiment, each cell represents an experiment making sure that cells from multiple donors/animals were used. For the in vivo experiments and the perfused pancreas, each mouse count represents an experiment. For two groupings, a t test was conducted. For multiple comparisons, one-way ANOVA was conducted. All statistical tests were performed using Graphpad Prism (version 9.1.0; graphpad.com).

[4] = test system: isolated mouse pancreatic islets; test: Somatostatin secretion in isolated mouse islets (RIA); format: cell-based; settings: 10–10,000 pmol/l, 1 mmol/l glucose
Description: Mouse islets were used acutely, except for studies with PTX, wherein islets were treated overnight with the toxin. Human islets were maintained in culture for up to 48 h in RPMI medium containing 10% (vol./vol.) FCS, 1% (vol./vol.) penicillin/streptomycin and 5 mmol/l glucose. Experiments were conducted as previously described. Islets were incubated in 0.3 ml EC1 or EC2 media (ESM Table 2) supplemented with glucose and other reagents as indicated. Glucagon was determined by ELISA (Mercodia).
as §1

[5] = target: T1, human GCGR expressed in HEK293T cells (Homo sapiens, UniProt P47871); test: G protein dissociation (TRUPATH BRET2 biosensor); format: cell-based
T1 construct: expressed in transfected cells; host or cells: HEK293T (ATCC CRL-3216)
Description: G protein dissociation was measured using the TRUPATH biosensor platform. TRUPATH constructs were obtained from Addgene (kit no. 1000000163 [21]). […] Cells were transfected with equal amounts of GCGR, GαsS-, Gαi1-, Gαi2-, Gαi3-, GαoA-, GαoB- or Gαz-Rluc8, Gβ3, and Gγ1-, Gγ8- or Gγ9-GFP2 (as described in [21]), and pcDNA3.1(‑) using polyethyleneimine (ESM Table 3). After 24 h, cells were seeded at 50,000 cells/well of a 0.01% poly-L-lysine-coated white 96-well plate (Greiner) and grown overnight. Cells were washed with Hanks’ Balanced Salt Solution (Lonza) buffered with 20 mmol/l HEPES (Sigma) and supplemented with 0.1% BSA (Sigma) (wt/vol.). Cells were incubated in 5 μmol/l coelenterazine 400a (Nanolight Technologies) for 5 min. […] The bioluminescence resonance energy transfer 2 (BRET2) ratio was calculated (λ515/λ400) and the time point corresponding to maximal dissociation was used to generate dose–response curves. pEC50 values were calculated using the ‘three parameter log(agonist) vs response’ model in GraphPad Prism9 (version 9.1.0; graphpad.com).

[6] = test system: C57Bl6N mice; test: Plasma glucose and glucagon during insulin-induced hypoglycaemia; format: in vivo, mouse
Description: In the experiments involving the use of REMD2.59, mice were injected intraperitoneally with the antagonist (5 mg/kg body weight in PBS) or vehicle 24 h prior to insulin-induced hypoglycaemia. Following the completion of the experiment, the mice were euthanised and the pancreases were resected and weighed.

[7] = test system: PKA activity in alpha cells; test: PKA activity measurements (AKAR3) in alpha cells in intact islets; format: cell-based, mouse
Description: PKA activity was measured using AKAR3 as previously described. The cells were continuously superfused at a rate of 60 μl/min with EC4 (ESM Table 2).

[8] = mouse, in vivo, ip
Description: C57Bl6N mice were fasted for 5 h prior to the ITTs. GLP-1(9–36) (100 µg/kg body weight) was injected intraperitoneally before or with insulin as indicated. The relative high dose of GLP-1(9–36) was used because of high basal levels of the peptide. In the control experiments, mice were injected with the saline solvent (154 mmol/l NaCl). […] Total GLP-1 was measured by ELISA (81508; Crystal Chem, Zaandam, the Netherlands; CV<10%).

T1 sequence (P47871 26-477): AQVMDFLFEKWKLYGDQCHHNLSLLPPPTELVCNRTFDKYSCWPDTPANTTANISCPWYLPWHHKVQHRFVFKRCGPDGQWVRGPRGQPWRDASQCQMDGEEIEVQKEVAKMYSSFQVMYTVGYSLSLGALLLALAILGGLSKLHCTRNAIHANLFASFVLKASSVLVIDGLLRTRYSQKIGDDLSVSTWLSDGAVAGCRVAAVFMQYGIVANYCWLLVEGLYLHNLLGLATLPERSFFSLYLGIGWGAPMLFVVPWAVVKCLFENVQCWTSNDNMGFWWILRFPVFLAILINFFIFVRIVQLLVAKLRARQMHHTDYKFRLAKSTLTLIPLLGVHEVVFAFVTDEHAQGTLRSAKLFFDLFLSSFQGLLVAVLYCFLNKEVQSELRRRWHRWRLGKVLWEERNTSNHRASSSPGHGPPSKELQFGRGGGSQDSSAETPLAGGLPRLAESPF

## CC[C@H](C)[C@H](NC(=O)[C@H](Cc1ccccc1)NC(=O)[C@H](CCC(=O)O)NC(=O)[C@H](CCCCN)NC(=O)[C@H](C)NC(=O)[C@H](C)NC(=O)[C@H](CCC(N)=O)NC(=O)CNC(=O)[C@H](CCC(=O)O)NC(=O)[C@H](CC(C)C)NC(=O)[C@H](Cc1ccc(O)cc1)NC(=O)[C@H](CO)NC(=O)[C@H](CO)NC(=O)[C@@H](NC(=O)[C@H](CC(=O)O)NC(=O)[C@H](CO)NC(=O)[C@@H](NC(=O)[C@H](Cc1ccccc1)NC(=O)[C@@H](NC(=O)CNC(=O)[C@@H](N)CCC(=O)O)[C@@H](C)O)[C@@H](C)O)C(C)C)C(=O)N[C@@H](C)C(=O)N[C@@H](Cc1c[nH]c2ccccc12)C(=O)N[C@@H](CC(C)C)C(=O)N[C@H](C(=O)N[C@@H](CCCCN)C(=O)NCC(=O)N[C@@H](CCCNC(=N)N)C(N)=O)C(C)C [GLP-1(9–36)]
[1]; 30 pmol/l alone, at 1 or 10 mmol/l glucose
  effect on insulin secretion: did not increase insulin secretion
[1]; 10–10,000 pmol/l, mouse islets, 1 mmol/l glucose
  effect on insulin secretion: No stimulatory effects
[2]; alpha cells from donors with type 2 diabetes
  increase of docking: 40%
[2]; alpha cells from healthy donors, after 15 min
  reduction of the number of docked granules: 52%
[3]; 10 pmol/l GLP-1(9–36) in the presence of REMD2.59 100 nmol/l
  glucagon secretion, % of that at 1 mmol/l glucose: 110±4%
[3]; 10 pmol/l, Glp1r−/− islets, 1 mmol/l glucose
  inhibitory effect on glucagon secretion in Glp1r−/− mouse islets: persisted
[3]; 10 pmol/l, exendin(9–39) 1 μmol/l, 1 mmol/l glucose
  glucagonostatic effect in the presence of exendin(9–39): retained their glucagonostatic effect
[3]; 30 pmol/l, 1 mmol/l glucose
  inhibition of glucagon secretion: 55%
[3]; 30 pmol/l, 10 mmol/l glucose
  change of glucagon secretion compared with 10 mmol/l glucose alone: −50%
[3]; 1000 pmol/l GLP-1(9–36) in the presence of REMD2.59 100 nmol/l
  glucagon secretion, % of that at 1 mmol/l glucose: 76±5%
[3]; 8-Br-Rp-cAMPS 10 μmol/l, 1 mmol/l glucose
  glucagonostatic effect in the presence of the PKA inhibitor 8-Br-Rp-cAMPS: retains its glucagonostatic capacity
[3]; 48 h
  IC50: 0.004 nM
[3]; AA 6 mmol/l (2 mmol/l each glutamine, alanine, arginine), 1 mmol/l glucose
  inhibition of amino acid-induced glucagon secretion: −66%
[3]; in the presence of isoprenaline
  reduction of isoprenaline-stimulated glucagon secretion: 75%
[3]; islets cultured overnight without PTX, 1 mmol/l glucose
  inhibition of glucagon secretion: ~ 50%
[3]; membrane depolarisation, 70 mmol/l extracellular K+
  reduction of glucagon secretion evoked by 70 mmol/l [K+]o: 60%
[3]; overnight PTX 100 ng/ml, 1 mmol/l glucose
  inhibitory effect on glucagon secretion after PTX pretreatment: almost abolished
[3]; ~30 pmol/l, from the dose–inhibition curves established in vitro
  expected inhibition of glucagon secretion by circulating levels: up to 80%
[4]
  effect on somatostatin secretion: No stimulatory effects
[5]; GCGR, GoA, HEK293T
  efficacy of GoA dissociation relative to glucagon: ~ 10%
[5]; Gα i2, mean ± S.E.M.
  EC50: 501 nM
[5]; Gα oA, mean ± S.E.M.
  pEC50: 7.55±-0.52
[6]; 100 µg/kg i.p. at t=−15 min, AUC over 45 min after insulin, 13 or 14 mice
  decrease of plasma glucagon AUC during hypoglycaemia: 30% and ~ 30%
[6]; 100 µg/kg i.p. at t=−15 min, insulin 0.75 U/kg
  effect on hypoglycaemia-triggered increase in plasma glucagon: slightly reduced
[6]; co-injected with insulin 0.75 U/kg, p=0.53
  glucagonostatic effect when administered simultaneously with insulin: No glucagonostatic effect
[6]; mice pretreated with REMD2.59, GLP-1(9–36) 100 µg/kg
  glucagonostatic effect in the presence of REMD2.59: no glucagonostatic effect
[6]; normoglycaemic conditions, prior to insulin injection, 100 µg/kg i.p.
  effect on basal plasma glucagon: not affected
[7]; 10 and 100 pmol/l, L-168049 100 nmol/l
  effect on PKA activity in the presence of L-168049: without effect
[7]; PTX pretreatment
  inhibitory effect on PKA activity after PTX pretreatment: abolished
[7]; alpha cells in intact mouse islets
  concentrations at which the decrease in cAMP/PKA activity was maximal: > 10 pmol/L
[8]
  time for which plasma GLP-1 remained at >100 pmol/l: > 45 min
